Data taken from ChEMBL document CHEMBL5465560, “Selectivity Literature for EUbOPEN Chemogenomic Library” (2024).
One block for each compound: values may come before it.

How the values were obtained:
[1] = target: T1, Membrane-associated tyrosine- and threonine-specific cdc2-inhibitory kinase (Homo sapiens) (UniProt Q99640); test: Selectivity interaction (KinomeScan (DiscoverX)) EUB0001049a PKMYT1; settings: at 1 µM
T1 sequence (whole entry): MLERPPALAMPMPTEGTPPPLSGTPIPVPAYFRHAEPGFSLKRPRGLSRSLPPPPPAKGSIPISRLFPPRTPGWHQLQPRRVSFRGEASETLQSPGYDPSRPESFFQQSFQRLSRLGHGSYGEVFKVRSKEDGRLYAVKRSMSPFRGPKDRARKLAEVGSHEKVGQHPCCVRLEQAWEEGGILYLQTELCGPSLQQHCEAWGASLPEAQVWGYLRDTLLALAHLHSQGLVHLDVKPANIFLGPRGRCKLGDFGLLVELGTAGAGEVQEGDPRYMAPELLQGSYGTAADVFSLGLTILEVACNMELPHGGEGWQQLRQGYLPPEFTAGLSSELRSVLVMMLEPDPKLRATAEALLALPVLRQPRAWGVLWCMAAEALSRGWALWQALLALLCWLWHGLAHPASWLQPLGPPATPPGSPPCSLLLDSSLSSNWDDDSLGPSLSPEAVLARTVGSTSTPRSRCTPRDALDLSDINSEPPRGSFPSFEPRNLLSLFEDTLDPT

[2] = target: Ephrin type-A receptor 7 (Homo sapiens) (UniProt Q15375); test: Selectivity interaction (Kinase panel (Invitrogen)) EUB0000639a EPHA7; settings: at 200 nM
[3] = target: Myosin light chain kinase family member 4 (Homo sapiens, UniProt Q86YV6); test: Selectivity interaction (NanoBRET assay (HEK293T cells)) EUB0001550a MYLK4; assay type: cell-based, HEK-293T
[4] = target: T2, Ephrin type-A receptor 6 (Homo sapiens) (UniProt Q9UF33); test: Selectivity interaction (KinomeScan (DiscoverX)) EUB0000045b EPHA6
T2 sequence (whole entry): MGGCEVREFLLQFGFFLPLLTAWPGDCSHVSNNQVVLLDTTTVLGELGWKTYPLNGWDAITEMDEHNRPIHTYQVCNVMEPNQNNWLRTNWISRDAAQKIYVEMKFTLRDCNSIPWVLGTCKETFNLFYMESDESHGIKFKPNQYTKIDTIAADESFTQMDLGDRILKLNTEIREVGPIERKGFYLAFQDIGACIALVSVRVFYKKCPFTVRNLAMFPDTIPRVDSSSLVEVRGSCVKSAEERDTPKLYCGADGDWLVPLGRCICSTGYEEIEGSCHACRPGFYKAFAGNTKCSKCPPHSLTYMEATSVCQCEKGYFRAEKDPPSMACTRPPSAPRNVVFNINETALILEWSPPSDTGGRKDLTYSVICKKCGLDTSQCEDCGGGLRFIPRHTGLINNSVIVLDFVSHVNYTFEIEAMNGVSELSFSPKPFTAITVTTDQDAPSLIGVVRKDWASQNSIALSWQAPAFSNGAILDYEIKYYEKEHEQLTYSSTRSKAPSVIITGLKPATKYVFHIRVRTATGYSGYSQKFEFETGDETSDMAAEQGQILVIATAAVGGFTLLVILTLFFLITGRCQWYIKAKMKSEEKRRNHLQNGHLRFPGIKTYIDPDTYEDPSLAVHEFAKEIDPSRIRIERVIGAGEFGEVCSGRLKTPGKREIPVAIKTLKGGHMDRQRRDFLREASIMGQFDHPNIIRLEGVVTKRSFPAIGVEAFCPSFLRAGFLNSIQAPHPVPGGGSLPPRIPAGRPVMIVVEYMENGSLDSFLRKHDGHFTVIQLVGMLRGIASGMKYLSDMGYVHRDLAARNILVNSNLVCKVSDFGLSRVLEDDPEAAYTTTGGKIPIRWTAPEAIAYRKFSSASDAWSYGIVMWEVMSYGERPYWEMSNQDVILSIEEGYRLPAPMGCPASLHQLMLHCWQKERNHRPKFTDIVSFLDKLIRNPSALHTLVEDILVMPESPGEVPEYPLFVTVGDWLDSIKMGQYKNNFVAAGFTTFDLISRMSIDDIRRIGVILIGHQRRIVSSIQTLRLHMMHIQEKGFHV

[5] = target: Myosin light chain kinase, smooth muscle (Homo sapiens, UniProt Q15746); test: Selectivity interaction (ActivX KiNativ screen (ex vivo kinase selectivity in human PBMCs)) EUB0001619a MYLK; assay type: cell-based; settings: PBMC, at 1 µM
[6] = target: Phosphatidylinositol 4,5-bisphosphate 3-kinase catalytic subunit beta isoform (Homo sapiens) (UniProt P42338); test: Selectivity interaction (KinomeScan (DiscoverX)) EUB0000618a PIK3CB; settings: at 10 µM
[7] = target: Ribosomal protein S6 kinase alpha-2 (Homo sapiens) (UniProt Q15349); test: Selectivity interaction (KinomeScan (DiscoverX)) EUB0000607a RPS6KA2; settings: at 10 µM
[8] = target: T3, Mitogen-activated protein kinase kinase kinase kinase 2 (Homo sapiens) (UniProt Q12851); test: Selectivity interaction (Kinase panel (KiNativ target engagement assay in Jurkat cells)) EUB0001635a MAP4K2; assay type: cell-based; settings: Selectivity number of off-targets 0.0, Selectivity number of targets 233.0, Source Knowledge https://www.sciencedirect.com/science/article/pii/S2451945619300674?via%3Dihub, at 1 µM
T3 sequence (whole entry): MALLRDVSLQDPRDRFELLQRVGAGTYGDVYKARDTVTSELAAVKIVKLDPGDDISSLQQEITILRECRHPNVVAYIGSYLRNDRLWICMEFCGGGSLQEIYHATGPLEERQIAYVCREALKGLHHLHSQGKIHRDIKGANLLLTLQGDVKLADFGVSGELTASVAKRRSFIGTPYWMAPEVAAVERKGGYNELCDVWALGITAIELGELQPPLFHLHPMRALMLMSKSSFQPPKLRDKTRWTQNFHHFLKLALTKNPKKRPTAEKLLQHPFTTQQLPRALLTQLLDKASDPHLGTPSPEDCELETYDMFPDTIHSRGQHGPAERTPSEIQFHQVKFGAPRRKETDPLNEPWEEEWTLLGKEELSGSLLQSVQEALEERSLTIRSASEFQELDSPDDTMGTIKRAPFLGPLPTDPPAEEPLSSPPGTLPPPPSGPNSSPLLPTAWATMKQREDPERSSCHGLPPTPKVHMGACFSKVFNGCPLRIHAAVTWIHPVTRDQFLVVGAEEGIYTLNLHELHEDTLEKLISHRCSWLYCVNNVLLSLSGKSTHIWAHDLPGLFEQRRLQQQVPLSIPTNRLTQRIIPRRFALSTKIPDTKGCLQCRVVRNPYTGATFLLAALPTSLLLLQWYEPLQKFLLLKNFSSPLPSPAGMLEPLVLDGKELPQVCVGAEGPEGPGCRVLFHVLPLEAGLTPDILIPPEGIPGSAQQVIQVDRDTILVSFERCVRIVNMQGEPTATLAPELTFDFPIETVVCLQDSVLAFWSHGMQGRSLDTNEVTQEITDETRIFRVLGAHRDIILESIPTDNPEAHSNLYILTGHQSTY

[9] = target: Serine/threonine-protein kinase 24 (Homo sapiens) (UniProt Q9Y6E0); test: Selectivity interaction (Kinase panel (DSF assay)) EUB0001558a STK24
Sequence of Serine/threonine-protein kinase 24 (Homo sapiens) (Q9Y6E0 whole entry, looked up): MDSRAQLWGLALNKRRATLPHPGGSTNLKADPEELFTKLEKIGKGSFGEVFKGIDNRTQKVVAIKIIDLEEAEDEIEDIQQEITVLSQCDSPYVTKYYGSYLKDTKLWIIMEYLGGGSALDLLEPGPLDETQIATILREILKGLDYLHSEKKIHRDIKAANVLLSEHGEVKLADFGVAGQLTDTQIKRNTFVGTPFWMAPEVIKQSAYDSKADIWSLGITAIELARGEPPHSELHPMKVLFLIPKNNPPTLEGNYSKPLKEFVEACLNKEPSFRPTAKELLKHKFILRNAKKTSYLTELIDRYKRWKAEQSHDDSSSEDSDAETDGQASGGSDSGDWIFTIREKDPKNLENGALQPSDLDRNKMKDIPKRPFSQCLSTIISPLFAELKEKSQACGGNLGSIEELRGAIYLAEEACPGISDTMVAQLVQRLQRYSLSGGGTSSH

Sequence of Myosin light chain kinase, smooth muscle (Q15746 whole entry, canonical isoform): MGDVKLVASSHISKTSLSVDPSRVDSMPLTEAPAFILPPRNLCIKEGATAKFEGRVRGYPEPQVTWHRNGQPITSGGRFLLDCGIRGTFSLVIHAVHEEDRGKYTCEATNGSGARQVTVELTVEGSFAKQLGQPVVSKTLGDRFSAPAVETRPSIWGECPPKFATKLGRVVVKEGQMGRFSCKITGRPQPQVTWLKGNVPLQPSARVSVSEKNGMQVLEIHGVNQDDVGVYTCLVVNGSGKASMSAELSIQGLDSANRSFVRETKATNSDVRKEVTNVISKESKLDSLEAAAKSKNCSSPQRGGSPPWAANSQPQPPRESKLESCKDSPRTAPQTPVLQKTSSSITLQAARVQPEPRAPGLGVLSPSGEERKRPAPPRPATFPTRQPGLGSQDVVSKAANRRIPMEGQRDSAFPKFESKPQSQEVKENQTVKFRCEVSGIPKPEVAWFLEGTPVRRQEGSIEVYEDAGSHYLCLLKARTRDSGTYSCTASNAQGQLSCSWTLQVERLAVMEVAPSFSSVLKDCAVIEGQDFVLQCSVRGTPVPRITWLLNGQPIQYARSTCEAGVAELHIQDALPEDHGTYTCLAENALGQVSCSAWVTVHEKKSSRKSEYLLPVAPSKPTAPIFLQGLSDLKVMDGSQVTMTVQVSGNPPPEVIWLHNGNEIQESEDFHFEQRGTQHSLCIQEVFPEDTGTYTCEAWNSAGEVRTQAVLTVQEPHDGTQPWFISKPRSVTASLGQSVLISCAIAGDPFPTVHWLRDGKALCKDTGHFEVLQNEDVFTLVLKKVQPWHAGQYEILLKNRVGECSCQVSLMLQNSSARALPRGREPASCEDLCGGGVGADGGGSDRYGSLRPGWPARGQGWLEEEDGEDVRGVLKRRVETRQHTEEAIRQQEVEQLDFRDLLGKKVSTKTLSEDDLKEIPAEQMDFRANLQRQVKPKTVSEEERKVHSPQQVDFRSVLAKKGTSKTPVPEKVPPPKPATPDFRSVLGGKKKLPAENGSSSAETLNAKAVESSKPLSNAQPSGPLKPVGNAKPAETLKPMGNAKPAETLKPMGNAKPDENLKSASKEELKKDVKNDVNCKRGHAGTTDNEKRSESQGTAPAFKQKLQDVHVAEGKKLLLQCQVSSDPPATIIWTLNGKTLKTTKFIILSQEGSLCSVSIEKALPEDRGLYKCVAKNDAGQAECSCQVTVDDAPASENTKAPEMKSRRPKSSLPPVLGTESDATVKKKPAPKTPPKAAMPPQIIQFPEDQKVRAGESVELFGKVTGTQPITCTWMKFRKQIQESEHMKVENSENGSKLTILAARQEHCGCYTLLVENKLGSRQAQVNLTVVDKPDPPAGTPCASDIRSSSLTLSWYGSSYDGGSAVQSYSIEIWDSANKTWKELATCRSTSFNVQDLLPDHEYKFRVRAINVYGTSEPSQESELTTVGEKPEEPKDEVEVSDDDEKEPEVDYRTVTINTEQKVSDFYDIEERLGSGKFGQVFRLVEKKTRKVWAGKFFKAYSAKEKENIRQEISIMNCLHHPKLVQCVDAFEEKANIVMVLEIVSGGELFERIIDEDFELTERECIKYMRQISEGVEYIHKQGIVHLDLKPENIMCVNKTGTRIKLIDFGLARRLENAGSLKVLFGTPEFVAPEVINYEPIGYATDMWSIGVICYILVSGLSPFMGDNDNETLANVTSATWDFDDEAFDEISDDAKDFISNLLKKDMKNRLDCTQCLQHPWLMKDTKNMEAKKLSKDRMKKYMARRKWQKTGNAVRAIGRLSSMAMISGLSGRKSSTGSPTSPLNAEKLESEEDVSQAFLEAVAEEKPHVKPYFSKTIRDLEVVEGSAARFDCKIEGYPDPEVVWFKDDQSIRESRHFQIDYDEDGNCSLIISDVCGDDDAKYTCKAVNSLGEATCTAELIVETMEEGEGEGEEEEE
Sequence of Ribosomal protein S6 kinase alpha-2 (Homo sapiens) (Q15349 whole entry): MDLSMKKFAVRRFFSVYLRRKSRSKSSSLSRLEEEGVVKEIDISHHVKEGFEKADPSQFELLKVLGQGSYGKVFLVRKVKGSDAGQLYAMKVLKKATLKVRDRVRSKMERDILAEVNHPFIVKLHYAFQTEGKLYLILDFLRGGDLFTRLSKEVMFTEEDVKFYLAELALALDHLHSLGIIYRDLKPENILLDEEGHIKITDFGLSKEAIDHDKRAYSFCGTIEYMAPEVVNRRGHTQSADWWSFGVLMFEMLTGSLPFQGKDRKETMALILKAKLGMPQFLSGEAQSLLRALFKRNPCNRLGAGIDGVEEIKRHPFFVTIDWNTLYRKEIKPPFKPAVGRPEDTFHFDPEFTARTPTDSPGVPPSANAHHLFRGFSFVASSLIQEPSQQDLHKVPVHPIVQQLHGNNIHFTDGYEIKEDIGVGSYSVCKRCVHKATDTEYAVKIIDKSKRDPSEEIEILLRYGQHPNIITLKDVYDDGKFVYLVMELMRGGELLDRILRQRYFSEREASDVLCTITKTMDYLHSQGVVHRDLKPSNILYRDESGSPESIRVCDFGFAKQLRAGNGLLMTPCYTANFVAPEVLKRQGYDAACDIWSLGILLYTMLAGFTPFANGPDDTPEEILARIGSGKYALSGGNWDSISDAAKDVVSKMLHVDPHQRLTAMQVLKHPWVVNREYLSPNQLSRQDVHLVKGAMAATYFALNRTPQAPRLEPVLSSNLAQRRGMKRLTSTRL
Sequence of Ephrin type-A receptor 7 (Homo sapiens) (Q15375 28-998 limits assumed): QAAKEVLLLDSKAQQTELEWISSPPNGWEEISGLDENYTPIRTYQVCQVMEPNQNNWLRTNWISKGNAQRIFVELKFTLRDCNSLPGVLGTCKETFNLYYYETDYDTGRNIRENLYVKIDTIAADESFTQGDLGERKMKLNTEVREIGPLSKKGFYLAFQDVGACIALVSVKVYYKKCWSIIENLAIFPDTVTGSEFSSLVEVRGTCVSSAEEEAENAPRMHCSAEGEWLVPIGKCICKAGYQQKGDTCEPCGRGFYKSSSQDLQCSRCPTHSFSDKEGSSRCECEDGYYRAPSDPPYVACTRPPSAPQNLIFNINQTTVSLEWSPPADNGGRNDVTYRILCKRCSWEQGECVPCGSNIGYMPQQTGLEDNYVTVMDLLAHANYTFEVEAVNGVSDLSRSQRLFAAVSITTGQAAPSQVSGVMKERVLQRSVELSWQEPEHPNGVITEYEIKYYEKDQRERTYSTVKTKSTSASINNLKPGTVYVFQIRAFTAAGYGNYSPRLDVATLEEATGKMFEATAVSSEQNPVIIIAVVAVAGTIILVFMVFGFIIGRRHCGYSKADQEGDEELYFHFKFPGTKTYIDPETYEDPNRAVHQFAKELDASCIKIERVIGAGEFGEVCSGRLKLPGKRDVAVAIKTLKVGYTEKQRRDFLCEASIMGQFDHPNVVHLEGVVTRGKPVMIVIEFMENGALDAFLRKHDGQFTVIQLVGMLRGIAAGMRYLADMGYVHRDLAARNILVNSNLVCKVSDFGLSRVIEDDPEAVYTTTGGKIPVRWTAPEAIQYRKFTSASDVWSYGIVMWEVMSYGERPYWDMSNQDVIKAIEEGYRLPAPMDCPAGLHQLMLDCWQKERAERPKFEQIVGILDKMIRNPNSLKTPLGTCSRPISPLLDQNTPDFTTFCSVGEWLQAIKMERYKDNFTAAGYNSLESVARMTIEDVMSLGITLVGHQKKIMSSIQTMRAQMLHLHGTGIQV
Sequence of Myosin light chain kinase family member 4 (Q86YV6 whole entry): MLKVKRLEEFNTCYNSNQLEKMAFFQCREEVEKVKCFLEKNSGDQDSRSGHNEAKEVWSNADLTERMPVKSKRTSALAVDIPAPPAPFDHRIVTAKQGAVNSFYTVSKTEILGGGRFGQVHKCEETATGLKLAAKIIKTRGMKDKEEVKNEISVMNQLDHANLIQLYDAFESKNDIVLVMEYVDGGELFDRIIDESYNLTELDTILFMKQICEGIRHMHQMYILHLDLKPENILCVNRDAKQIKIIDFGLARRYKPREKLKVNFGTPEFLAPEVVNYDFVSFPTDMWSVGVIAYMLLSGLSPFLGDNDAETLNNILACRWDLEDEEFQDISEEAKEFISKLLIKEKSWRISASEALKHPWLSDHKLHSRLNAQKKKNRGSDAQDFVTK

Structure (SMILES): COc1cc(Nc2nc(C)cc(-c3cnn4nc(OC)ccc34)n2)cc(C(F)(F)F)c1
% of control [1]: 97%

% of inhibition [2]: -7.96%
Structure (SMILES): CC[C@@H]1[C@H](F)C(=O)N[C@@H]1COc1nccc2cc(C(N)=O)c(OC)cc12 [ZIMLOVISERTIB]

IC50 [3]: 270 nM
Structure (SMILES): CN(C)CC#Cc1ccc2[nH]c3c(c2c1)-c1nc(N)ncc1CCC3

Structure (SMILES): C=CC(=O)Nc1cc(-n2c(=O)ccc3cnc4ccc(-c5ccc(NS(C)(=O)=O)cc5)cc4c32)ccc1C
% of control ([4]; at 1 µM): 96%
% of control ([4]; at 10 µM): 87%

Structure (SMILES): N#Cc1cccc(-c2c[nH]c3ncnc(N4CCOCC4)c23)c1
% of inhibition [5]: 13%

Structure (SMILES): O[C@H]1CC[C@H](Nc2ncc3nc(Nc4c(F)cc(F)cc4F)n([C@H]4CCOC4)c3n2)CC1
% of control [6]: 100%

Structure (SMILES): CNC(=O)Nc1ccc(-c2nc(N3CC4CCC(C3)O4)c3cnn(C4CCC5(CC4)OCCO5)c3n2)cc1
% of control [7]: 93%

Structure (SMILES): C=CC(=O)Nc1ccc(C(=O)Nc2[nH]nc3c2CN(C(=O)N[C@H](CN(C)C)c2ccccc2)C3(C)C)cc1
% of engagement [8]: -14.9%

Structure (SMILES): CC(C)(O)[C@H](F)CN1Cc2cc(NC(=O)c3cnn4cccnc34)c(N3CCOCC3)cc2C1=O
dTM [9]: 0.1 K
